Source: patent US7138361B2, “Herbicidal heterocycles” (E. I. du Pont de Nemours and Company, priority 2000, dated 2006)

Assays:
Format in all cases: in vivo
[1] = system: lambsquarters (Chenopodium album); assay: Test C preemergence; settings: for Plant response rating (0 to 100), Lambsquarters: Rate 500 g/ha, visual evaluation after 12 to 14 days
Procedure, shortened: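 Each compound was dissolved in a non-phytotoxic solvent system containing a surfactant and sprayed either on freshly planted seeds (preemergence) or on young plants, 2 to 18 cm high (postemergence). Ratings after 12 to 14 greenhouse days ran from 0, no effect, to 100, complete control.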

rice (Oryza saliva) = assay: Test B preemergence
Procedure, shortened: (§1)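 Pre: seeded pots sprayed, chemical in non-phytotoxic solvent/surfactant mix. Post: plants 2–18 cm, 1–4 leaf, same formulation. Greenhouse 13–15 d; visual % control vs untreated, 0–100 scale.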

[2] = system: barnyardgrass (Echinochloa crus-galli); assay: Test B preemergence
Procedure, shortened: as §1

[3] = system: pigweed (Amaranthus retroflexus); assay: Test B preemergence
Procedure, shortened: as §1

[4] = system: crabgrass (Digitaria sanguinalis); assay: Test B preemergence
Procedure, shortened: as §1

[5] = system: morning glory (Ipomoea hederacea); assay: Test B preemergence
Procedure, shortened: as §1

[6] = system: velvetleaf (Abutilon theophrasti); assay: Test B preemergence
Procedure, shortened: as §1

corn (Zea mays) [7] = assay: Test B preemergence
Procedure, shortened: as §1

[8] = system: cocklebur (Xanthium strumarium); assay: Test B preemergence
Procedure, shortened: as §1

[9] = system: lambsquarters (Chenopodium album); assay: Test B preemergence
Procedure, shortened: as §1

[10] = system: Surinam grass (Brachiaria decumbens); assay: Test B preemergence
Procedure, shortened: as §1

[11] = system: giant foxtail (Setaria faberii); assay: Test B preemergence
Procedure, shortened: as §1

[12] = system: barnyardgrass (Echinochloa crus-galli); assay: Test B postemergence
Procedure, shortened: as §1

[13] = system: blackgrass (Alopecurus myosuroides); assay: Test B postemergence
Procedure, shortened: as §1

[14] = system: pigweed (Amaranthus retroflexus); assay: Test B postemergence
Procedure, shortened: as §1

[15] = system: crabgrass (Digitaria sanguinalis); assay: Test B postemergence
Procedure, shortened: as §1

[16] = system: wheat (Triticum aestivum); assay: Test B postemergence
Procedure, shortened: as §1

[17] = system: morning glory (Ipomoea hederacea); assay: Test B postemergence
Procedure, shortened: as §1

wild oat (Avena fatua) = assay: Test B postemergence
Procedure, shortened: as §1

[18] = system: velvetleaf (Abutilon theophrasti); assay: Test B postemergence
Procedure, shortened: as §1

corn (Zea mays) [19] = assay: Test B postemergence
Procedure, shortened: as §1

[20] = system: cocklebur (Xanthium strumarium); assay: Test B postemergence
Procedure, shortened: as §1

[21] = system: lambsquarters (Chenopodium album); assay: Test B postemergence
Procedure, shortened: as §1

[22] = system: Surinam grass (Brachiaria decumbens); assay: Test B postemergence
Procedure, shortened: as §1

[23] = system: giant foxtail (Setaria faberii); assay: Test B postemergence
Procedure, shortened: as §1

[24] = Rate 125 g/ha, scale 0 to 100, 0 no effect, 100 complete control
[25] = preemergence, Rate 62 g/ha, scale 0 to 100
[26] = preemergence, Rate 250 g/ha, scale 0 to 100, 0 no effect, 100 complete control
[27] = Preemergence, Rate 500 g/ha, scale 0 to 100, 0 no effect, 100 complete control
[28] = preemergence, Rate 125 g/ha, scale of 0 to 100 where 0 is no effect and 100 is complete control, 13 to 15 days
[29] = Rate 500 g/ha, scale 0 to 100, 0 is no effect, 100 is complete control, 13 to 15 days
[30] = Rate 500 g/ha, scale 0 (no effect) to 100 (complete control), 13 to 15 days

## CCOc1cccc(N2CCC(n3ccc(C(C)(C)C)n3)C2=O)c1 (centres unmarked) [Compound 130]
[1]; [24]
  Plant response rating, Lambsquarters: 100
[1]; [25]
  Plant response rating, Lambsquarters: 100
[1]; preemergence
  Plant response rating (0 to 100), Lambsquarters: 100
[1]; [26]
  Plant response rating, Lambsquarters: 100
Rice (Oryza saliva); [27]
  Plant response rating, Rice: 100
Rice (Oryza saliva); [28]
  Plant response rating, Rice: 100
[2]; [27]
  Plant response rating, Barnyardgrass: 100
[2]; [28]
  Plant response rating, Barnyardgrass: 100
[3]; [27]
  Plant response rating, Pigweed: 100
[3]; [28]
  Plant response rating, Pigweed: 100
[4]; [27]
  Plant response rating, Crabgrass: 100
[4]; [28]
  Plant response rating, Crabgrass: 100
[5]; [27]
  Plant response rating, Morningglory: 100
[5]; [28]
  Plant response rating, Morningglory: 50
[6]; [27]
  Plant response rating, Velvetleaf: 50
[6]; [28]
  Plant response rating, Velvetleaf: 0
Corn (Zea mays) [7]; [27]
  Plant response rating, Corn: 70
Corn (Zea mays) [7]; [28]
  Plant response rating, Corn: 50
[8]; [27]
  Plant response rating, Cocklebur: 50
[8]; [28]
  Plant response rating, Cocklebur: 0
[9]; [27]
  Plant response rating, Lambsquarters: 100
[9]; [28]
  Plant response rating, Lambsquarters: 100
[10]; [27]
  Plant response rating, Surinam grass: 100
[10]; [28]
  Plant response rating, Surinam grass: 100
[11]; [27]
  Plant response rating, Foxtail, Giant: 100
[11]; [28]
  Plant response rating, Foxtail, Giant: 100
[12]; [24]
  Plant response rating, Barnyardgrass: 0
[12]; [29]
  Plant response rating, Barnyardgrass: 90
[13]; [24]
  Plant response rating, Blackgrass: 0
[13]; [29]
  Plant response rating, Blackgrass: 20
[14]; [24]
  Plant response rating, Pigweed: 80
[15]; [24]
  Plant response rating, Crabgrass: 0
[16]; [24]
  Plant response rating, Wheat: 0
[17]; [24]
  Plant response rating, Morningglory: 70
Wild oat (Avena fatua); [24]
  Plant response rating, Wild Oat: 0
[18]; [24]
  Plant response rating, Velvetleaf: 0
Corn (Zea mays) [19]; [24]
  Plant response rating, Corn: 0
Corn (Zea mays) [19]; [29]
  Plant response rating, Corn: 0
[20]; [24]
  Plant response rating, Cocklebur: 20
[20]; [29]
  Plant response rating, Cocklebur: 50
[21]; [24]
  Plant response rating, Lambsquarters: 90
[22]; [24]
  Plant response rating, Surinam grass: 0
[22]; [29]
  Plant response rating, Surinam grass: 40
[23]; [24]
  Plant response rating, Foxtail, Giant: 0

## CCCC(C)c1ccn(C2OCN(c3cccc(OC(F)F)c3)C2=O)n1 (centres unmarked) [Compound 132]
[1]; [24]
  Plant response rating, Lambsquarters: 100
[1]; [25]
  Plant response rating, Lambsquarters: 100
[1]; preemergence
  Plant response rating (0 to 100), Lambsquarters: 100
[1]; [26]
  Plant response rating, Lambsquarters: 100
Rice (Oryza saliva); [27]
  Plant response rating, Rice: 50
Rice (Oryza saliva); [28]
  Plant response rating, Rice: 0
[2]; [27]
  Plant response rating, Barnyardgrass: 100
[2]; [28]
  Plant response rating, Barnyardgrass: 100
[3]; [27]
  Plant response rating, Pigweed: 100
[3]; [28]
  Plant response rating, Pigweed: 70
[4]; [27]
  Plant response rating, Crabgrass: 100
[4]; [28]
  Plant response rating, Crabgrass: 100
[5]; [27]
  Plant response rating, Morningglory: 0
[5]; [28]
  Plant response rating, Morningglory: 0
[6]; [27]
  Plant response rating, Velvetleaf: 30
[6]; [28]
  Plant response rating, Velvetleaf: 0
Corn (Zea mays) [7]; [27]
  Plant response rating, Corn: 0
Corn (Zea mays) [7]; [28]
  Plant response rating, Corn: 0
[8]; [27]
  Plant response rating, Cocklebur: 30
[8]; [28]
  Plant response rating, Cocklebur: 0
[9]; [27]
  Plant response rating, Lambsquarters: 100
[9]; [28]
  Plant response rating, Lambsquarters: 100
[10]; [27]
  Plant response rating, Surinam grass: 100
[10]; [28]
  Plant response rating, Surinam grass: 80
[11]; [27]
  Plant response rating, Foxtail, Giant: 100
[11]; [28]
  Plant response rating, Foxtail, Giant: 100
[12]; [24]
  Plant response rating, Barnyardgrass: 0
[12]; [29]
  Plant response rating, Barnyardgrass: 30
[13]; [24]
  Plant response rating, Blackgrass: 0
[13]; [29]
  Plant response rating, Blackgrass: 0
[14]; [24]
  Plant response rating, Pigweed: 0
[15]; [24]
  Plant response rating, Crabgrass: 0
[16]; [24]
  Plant response rating, Wheat: 0
[17]; [24]
  Plant response rating, Morningglory: 0
Wild oat (Avena fatua); [24]
  Plant response rating, Wild Oat: 0
[18]; [24]
  Plant response rating, Velvetleaf: 0
Corn (Zea mays) [19]; [24]
  Plant response rating, Corn: 0
Corn (Zea mays) [19]; [29]
  Plant response rating, Corn: 0
[20]; [24]
  Plant response rating, Cocklebur: 0
[20]; [29]
  Plant response rating, Cocklebur: 0
[21]; [24]
  Plant response rating, Lambsquarters: 70
[22]; [24]
  Plant response rating, Surinam grass: 0
[22]; [29]
  Plant response rating, Surinam grass: 0
[23]; [24]
  Plant response rating, Foxtail, Giant: 0

## CCC(C)c1ccn(C2CCN(c3ccc(Br)c(OC)c3)C2=O)n1 (centres unmarked) [Compound 142]
[1]; [24]
  Plant response rating, Lambsquarters: 100
[1]; [25]
  Plant response rating, Lambsquarters: 100
[1]; preemergence
  Plant response rating (0 to 100), Lambsquarters: 100
[1]; [26]
  Plant response rating, Lambsquarters: 100
Rice (Oryza saliva); [27]
  Plant response rating, Rice: 40
Rice (Oryza saliva); [28]
  Plant response rating, Rice: 20
[2]; [27]
  Plant response rating, Barnyardgrass: 100
[2]; [28]
  Plant response rating, Barnyardgrass: 100
[3]; [27]
  Plant response rating, Pigweed: 100
[3]; [28]
  Plant response rating, Pigweed: 100
[4]; [27]
  Plant response rating, Crabgrass: 100
[4]; [28]
  Plant response rating, Crabgrass: 100
[5]; [27]
  Plant response rating, Morningglory: 50
[5]; [28]
  Plant response rating, Morningglory: 20
[6]; [27]
  Plant response rating, Velvetleaf: 90
[6]; [28]
  Plant response rating, Velvetleaf: 20
Corn (Zea mays) [7]; [27]
  Plant response rating, Corn: 20
Corn (Zea mays) [7]; [28]
  Plant response rating, Corn: 0
[8]; [27]
  Plant response rating, Cocklebur: 60
[8]; [28]
  Plant response rating, Cocklebur: 0
[9]; [27]
  Plant response rating, Lambsquarters: 100
[9]; [28]
  Plant response rating, Lambsquarters: 100
[10]; [27]
  Plant response rating, Surinam grass: 100
[10]; [28]
  Plant response rating, Surinam grass: 100
[11]; [27]
  Plant response rating, Foxtail, Giant: 100
[11]; [28]
  Plant response rating, Foxtail, Giant: 100
[12]; [24]
  Plant response rating, Barnyardgrass: 0
[12]; [30]
  Plant response rating, Barnyardgrass: 60
[13]; [24]
  Plant response rating, Blackgrass: 0
[13]; [30]
  Plant response rating, Blackgrass: 0
[14]; [24]
  Plant response rating, Pigweed: 60
[14]; [30]
  Plant response rating, Pigweed: 80
[15]; [24]
  Plant response rating, Crabgrass: 40
[15]; [30]
  Plant response rating, Crabgrass: 60
[16]; [24]
  Plant response rating, Wheat: 0
[16]; [30]
  Plant response rating, Wheat: 0
[17]; [24]
  Plant response rating, Morningglory: 70
[17]; [30]
  Plant response rating, Morningglory: 100
Wild oat (Avena fatua); [24]
  Plant response rating, Wild Oat: 0
Wild oat (Avena fatua); [30]
  Plant response rating, Wild Oat: 0
[18]; [24]
  Plant response rating, Velvetleaf: 40
[18]; [30]
  Plant response rating, Velvetleaf: 70
Corn (Zea mays) [19]; [24]
  Plant response rating, Corn: 0
Corn (Zea mays) [19]; [30]
  Plant response rating, Corn: 30
[20]; [24]
  Plant response rating, Cocklebur: 60
[20]; [30]
  Plant response rating, Cocklebur: 90
[21]; [24]
  Plant response rating, Lambsquarters: 70
[21]; [30]
  Plant response rating, Lambsquarters: 100
[22]; [24]
  Plant response rating, Surinam grass: 0
[22]; [30]
  Plant response rating, Surinam grass: 0
[23]; [24]
  Plant response rating, Foxtail, Giant: 30
[23]; [30]
  Plant response rating, Foxtail, Giant: 90
